Data reported in PMC6515519, “Structure–Activity Relationships of the Tetrapeptide Ac-His-Arg-(pI)DPhe-Tic-NH2 at the Mouse Melanocortin Receptors: Modification at the (pI)DPhe Position Leads to mMC3R Versus mMC4R Selective Ligands” (Molecules, 2019).
Non-standard residues stand in square brackets, D forms with d. Residues, ends and D or L forms follow the SMILES beside them. dPhe(4-tBu) = CC(C)(C)c1ccc(C[C@@H](N)C(=O)O)cc1; dPhe(3,4-Cl2) = N[C@H](Cc1ccc(Cl)c(Cl)c1)C(=O)O; dPhe(4-CF3) = N[C@H](Cc1ccc(C(F)(F)F)cc1)C(=O)O; dBip = N[C@H](Cc1ccc(-c2ccccc2)cc1)C(=O)O; dPhe(4-Br) = N[C@H](Cc1ccc(Br)cc1)C(=O)O; dPhe(4-F) = N[C@H](Cc1ccc(F)cc1)C(=O)O; Tic = O=C(O)[C@@H]1Cc2ccccc2CN1

Key:
Type in all cases: cell-based
mMC1R = target: T1, mMC1R (Mus musculus, UniProt Q01727); assay: AlphaScreen cAMP assay, agonist pharmacology in HEK293 cells stably expressing mMC1R; settings: for EC50: AlphaScreen cAMP, HEK293, mean ± SEM, at least three experiments; for potency increase at the mMC1R relative to Ac-His-DPhe-Arg-Trp-NH2: compared with KNS2-153; for decreased agonist potency at the mMC1R compared to KNS2-22-4: ratio of EC50 to KNS2-22-4
T1 construct: expressed in transfected cells
Protocol: (§1) Peptides were synthesized manually with microwave irradiation using standard Fmoc synthesis techniques and purified using semi-preparative reverse-phase high-pressure liquid-chromatography (RP-HPLC). […] Agonist pharmacology was measured at the mMC3R, mMC4R, and mMC5R using a colorimetric β-galactosidase assay that measures cAMP production. Agonist pharmacology was assessed at the mMC1R using the Amplified Luminescent Proximity Homogenous Assay Screen (AlphaScreen, PerkinElmer), as previously described. The MC2R is only stimulated by ACTH, and was not examined in this study. For both assays, HEK293 cells stably expressing the mMCRs were used.
Peptide ligands were dissolved in DMSO at stock concentrations of 10^−2 M. To assess the pharmacological activity of the tetrapeptides at the mMC1R, HEK293 cells stably expressing the mMC1R were stimulated with the ligands using the cAMP AlphaScreen assay (PerkinElmer) according to the manufacturer’s instruction and as previously described.
Cells were dislodged with Versene (Gibco) at 37 °C, and 10,000 cells/well were plated in a 384-well plate (Optiplate) with freshly made stimulation buffer (Hank’s Balanced Salt Solution (HBSS, 1×), 0.5 mM 3-isobutyl-1-methylxanthine (IBMX), 5 mM HEPES, and 0.1% bovine serum albumin (BSA), pH = 7.4) with 0.5 μg anti-cAMP acceptor beads per well.
Plates were incubated for an additional 2 h in the dark. Post incubation, the plates were read by an EnSpire plate reader (PerkinElmer, Waltham, MA, USA).
(§2) The EC50 and pA2 values represent the mean of duplicate replicates performed in at least three independent experiments. The EC50 and pA2 values and their associated standard errors (SEM) were determined by fitting the data to a nonlinear least-squares analysis using the PRISM program (v4.0, GraphPad Inc., San Diego, CA, USA). The ligands were assayed as TFA salt and not corrected for peptide content.

mMC3R = target: T2, mMC3R (Mus musculus, UniProt P33033); assay: β-galactosidase cAMP reporter assay, agonist pharmacology in HEK293 cells stably expressing mMC3R; settings: for decreased agonist potency at the mMC3R compared to KNS2-22-4: ratio of EC50 to KNS2-22-4; for EC50: β-galactosidase cAMP, HEK293, mean ± SEM, apparent EC50 for partial agonists; for agonist selectivity for the mMC3R over the mMC4R: mMC3R versus mMC4R agonist potency
T2 construct: expressed in transfected cells
Protocol: as §1
(§3) The peptide ligands were assessed for pharmacological activity at the mMC3R, mMC4R, and mMC5R using a β-galactosidase assay. Briefly, HEK293 cells stably expressing the MC3R, MC4R, or MC5R were plated into a 10 cm dish and grown to 40% confluency. The HEK293 cells were transfected with 4 µg of CRE/β-galactosidase using the calcium-phosphate method, as previously described. Cells (5000 to 15,000) were plated on collagen-treated Nunclon Delta Surface 96-well plates (Thermo Fisher Scientific) and incubated at 37 °C with 5% CO2. […] Plates were stored at −80 °C for up to two weeks.
(§4) Thawed plates were assessed for protein content and assayed for β-galactosidase activity. Relative protein concentration was determined by adding 10 µL of cell lysate to 200 µL of a 1:5 dilution of Bio Rad G250 protein dye in a 96-well plate.
as §2

mMC4R [1] = target: T3, mMC4R (Mus musculus, UniProt P56450); assay: β-galactosidase cAMP reporter assay, agonist pharmacology in HEK293 cells stably expressing mMC4R; settings: for mMC4R percent maximal stimulation relative to NDP-MSH (partial agonist): relative to maximal NDP-MSH signal
T3 construct: expressed in transfected cells
Protocol: as §1, §3, §4, §2

mMC5R = target: T4, mMC5R (Mus musculus, UniProt P41149); assay: β-galactosidase cAMP reporter assay, agonist pharmacology in HEK293 cells stably expressing mMC5R; settings: for decreased agonist potency at the mMC5R compared to KNS2-22-4: ratio of EC50 to KNS2-22-4; for EC50: β-galactosidase cAMP, HEK293, mean ± SEM, apparent EC50 for partial agonists
T4 construct: expressed in transfected cells
Protocol: as §1, §3, §4, §2

mMC4R [2] = target: T3, mMC4R; assay: β-galactosidase cAMP reporter assay, antagonist Schild analysis with NDP-MSH as agonist; settings: for mMC4R pA2: Schild analysis, agonist NDP-MSH, <5.5 = no antagonist potency at highest range (10,000, 5000, 1000, 500 nM)
Protocol: as §1, §3, §4, §2

T4 sequence (P41149 whole entry): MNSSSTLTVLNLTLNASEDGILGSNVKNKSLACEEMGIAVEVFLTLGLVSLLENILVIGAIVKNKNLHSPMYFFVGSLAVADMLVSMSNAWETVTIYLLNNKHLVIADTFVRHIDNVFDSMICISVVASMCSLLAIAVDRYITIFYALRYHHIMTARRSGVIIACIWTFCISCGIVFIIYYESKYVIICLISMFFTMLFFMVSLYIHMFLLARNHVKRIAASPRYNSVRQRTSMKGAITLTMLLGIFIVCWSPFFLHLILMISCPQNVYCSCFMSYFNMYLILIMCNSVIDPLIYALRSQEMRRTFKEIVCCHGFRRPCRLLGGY
T2 sequence (P33033 whole entry): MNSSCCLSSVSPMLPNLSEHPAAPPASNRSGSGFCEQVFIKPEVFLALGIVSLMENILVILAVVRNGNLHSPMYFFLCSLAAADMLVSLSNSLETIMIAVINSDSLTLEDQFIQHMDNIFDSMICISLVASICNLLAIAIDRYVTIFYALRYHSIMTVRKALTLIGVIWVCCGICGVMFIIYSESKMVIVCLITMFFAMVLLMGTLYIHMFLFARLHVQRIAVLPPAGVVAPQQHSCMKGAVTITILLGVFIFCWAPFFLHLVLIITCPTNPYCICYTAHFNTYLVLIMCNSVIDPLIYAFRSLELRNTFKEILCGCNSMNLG
T1 sequence (Q01727 whole entry): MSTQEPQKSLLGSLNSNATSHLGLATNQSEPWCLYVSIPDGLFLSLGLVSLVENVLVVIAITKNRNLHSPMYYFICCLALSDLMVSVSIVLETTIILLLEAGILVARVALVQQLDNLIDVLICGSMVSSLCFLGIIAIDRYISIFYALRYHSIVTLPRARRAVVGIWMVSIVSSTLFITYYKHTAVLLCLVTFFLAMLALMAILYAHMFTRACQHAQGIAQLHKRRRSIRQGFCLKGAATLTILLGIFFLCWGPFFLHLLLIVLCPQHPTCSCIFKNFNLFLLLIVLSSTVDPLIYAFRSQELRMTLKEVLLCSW
T3 sequence (P56450 whole entry): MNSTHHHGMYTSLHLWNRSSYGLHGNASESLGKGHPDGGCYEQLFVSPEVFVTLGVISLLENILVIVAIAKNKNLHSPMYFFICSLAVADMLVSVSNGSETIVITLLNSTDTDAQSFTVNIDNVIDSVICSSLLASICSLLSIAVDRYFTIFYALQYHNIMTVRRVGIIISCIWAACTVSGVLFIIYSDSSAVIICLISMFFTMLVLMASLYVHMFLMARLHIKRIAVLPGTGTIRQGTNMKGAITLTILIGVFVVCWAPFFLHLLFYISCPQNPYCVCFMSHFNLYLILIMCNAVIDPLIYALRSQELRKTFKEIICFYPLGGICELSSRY

Q: `CC(=O)N[C@@H](Cc1c[nH]cn1)C(=O)N[C@@H](CCCNC(=N)N)C(=O)N[C@H](Cc1ccc(F)cc1)C(=O)N1Cc2ccccc2C[C@H]1C(N)=O` [KNS2-22-2, Ac-His-Arg-(pF)DPhe-Tic-NH2] (Ac-HR[dPhe(4-F)][Tic]-NH2) was tested. Which EC50 (mMC1R) did it give?
A: The EC50 was 1.8 ± 0.7 nM.

Q: What about the “decreased agonist potency at the mMC3R compared to KNS2-22-4” value (from here on “decreased agonist potency at the mMC3R”) (mMC3R) of the same compound?
A: The value was 30 fold.

Q: What about the EC50 (mMC3R) of the same compound?
A: Its EC50 is 450 ± 70 nM.

Q: What about the EC50 (mMC4R [1]) of the same compound?
A: The EC50 was 560 nM.

Q: What about the “mMC4R percent maximal stimulation relative to NDP-MSH (partial agonist)” value (mMC4R [1]) of the same compound?
A: The value was 70 % NDP.

Q: And the “decreased agonist potency at the mMC5R compared to KNS2-22-4” value (mMC5R)?
A: Its value is 14 fold.

Q: And the EC50 (mMC5R)?
A: Its EC50 is 70 ± 40 nM.

Q: For `CC(=O)N[C@@H](Cc1c[nH]cn1)C(=O)N[C@@H](CCCNC(=N)N)C(=O)N[C@H](Cc1ccc(Br)cc1)C(=O)N1Cc2ccccc2C[C@H]1C(N)=O` [KNS2-22-3, Ac-His-Arg-(pBr)DPhe-Tic-NH2] (Ac-HR[dPhe(4-Br)][Tic]-NH2), which EC50 (mMC1R) is on record?
A: The EC50 was 0.7 ± 0.3 nM.

Q: What about the “potency increase at the mMC1R relative to Ac-His-DPhe-Arg-Trp-NH2” value (mMC1R) of the same compound?
A: The value was ≥ 10 fold.

Q: And the EC50 (mMC3R)?
A: Its EC50 is 90 ± 20 nM.

Q: What about the EC50 (mMC4R [1]) of the same compound?
A: The EC50 was 290 nM.

Q: And the “mMC4R percent maximal stimulation relative to NDP-MSH (partial agonist)” value (mMC4R [1])?
A: The value was 55 % NDP.

Q: And the EC50 (mMC5R)?
A: The EC50 was 9.7 ± 0.5 nM.

Q: With `CC(=O)N[C@@H](Cc1c[nH]cn1)C(=O)N[C@@H](CCCNC(=N)N)C(=O)N[C@H](Cc1ccc(-c2ccccc2)cc1)C(=O)N1Cc2ccccc2C[C@H]1C(N)=O` [KNS2-23-1, Ac-His-Arg-DBip-Tic-NH2] (Ac-HR[dBip][Tic]-NH2) as the compound, how does the EC50 (mMC1R) read?
A: The EC50 was 0.6 ± 0.1 nM.

Q: What about the “potency increase at the mMC1R relative to Ac-His-DPhe-Arg-Trp-NH2” value (mMC1R) of the same compound?
A: The value was ≥ 10 fold.

Q: What about the “agonist selectivity for the mMC3R over the mMC4R” value (shortened to “agonist selectivity for the mMC3R”) (mMC3R) of the same compound?
A: The value was “at least 100 fold”.

Q: What about the EC50 (mMC3R) of the same compound?
A: The EC50 was 14 ± 2 nM.

Q: And the EC50 (mMC4R [1])?
A: Its EC50 is 1400 nM.

Q: What about the “mMC4R percent maximal stimulation relative to NDP-MSH (partial agonist)” value (mMC4R [1]) of the same compound?
A: Its value is 45 % NDP.

Q: And the “mMC4R pA2” value (mMC4R [2])?
A: Its value is 5.9 ± 0.2.

Q: What about the EC50 (mMC5R) of the same compound?
A: The EC50 was 7.6 ± 0.7 nM.

Q: `CC(=O)N[C@@H](Cc1c[nH]cn1)C(=O)N[C@@H](CCCNC(=N)N)C(=O)N[C@H](Cc1ccc(C(C)(C)C)cc1)C(=O)N1Cc2ccccc2C[C@H]1C(N)=O` [KNS2-23-3, Ac-His-Arg-(ptBu)DPhe-Tic-NH2] (Ac-HR[dPhe(4-tBu)][Tic]-NH2) was tested. Which EC50 (mMC1R) did it give?
A: Its EC50 is 9 ± 3 nM.

Q: And the “decreased agonist potency at the mMC1R compared to KNS2-22-4” value (“decreased agonist potency at the mMC1R” for short) (mMC1R)?
A: The value was 13 fold.

Q: What about the “agonist selectivity for the mMC3R” value (mMC3R) of the same compound?
A: Its value is “at least 100 fold”.

Q: What about the “mMC3R percent maximal stimulation relative to NDP-MSH (partial agonist)” value (mMC3R; relative to maximal NDP-MSH signal) of the same compound?
A: Its value is 85 % NDP.

Q: And the EC50 (mMC3R)?
A: The EC50 was 13 nM.

Q: What about the EC50 (mMC4R [1]) of the same compound?
A: Its EC50 is > 100000 nM.

Q: What about the “mMC4R percent maximal stimulation relative to NDP-MSH (partial agonist)” value (mMC4R [1]) of the same compound?
A: Its value is < 20 % NDP.

Q: What about the Kb (mMC4R [2]) of the same compound?
A: The Kb was 158 nM.

Q: What about the “mMC4R pA2” value (mMC4R [2]) of the same compound?
A: Its value is 6.8.

Q: And the EC50 (mMC5R)?
A: The EC50 was 3.4 ± 0.3 nM.

Q: How did the EC50 (mMC1R) turn out when `CC(=O)N[C@@H](Cc1c[nH]cn1)C(=O)N[C@@H](CCCNC(=N)N)C(=O)N[C@H](Cc1ccc(Cl)c(Cl)c1)C(=O)N1Cc2ccccc2C[C@H]1C(N)=O` [KNS2-23-4, Ac-His-Arg-(3,4-diCl)DPhe-Tic-NH2] (Ac-HR[dPhe(3,4-Cl2)][Tic]-NH2) was run?
A: Its EC50 is 5 ± 2 nM.

Q: And the “decreased agonist potency at the mMC1R” value (mMC1R)?
A: Its value is 7 fold.

Q: And the “agonist selectivity for the mMC3R” value (mMC3R)?
A: Its value is “at least 100 fold”.

Q: And the “decreased agonist potency at the mMC3R” value (mMC3R)?
A: Its value is 30 fold.

Q: And the EC50 (mMC3R)?
A: Its EC50 is 400 ± 100 nM.

Q: And the EC50 (mMC4R [1])?
A: The EC50 was > 100000 nM.

Q: And the “mMC4R agonist activity” value (mMC4R [1]; full agonist = >90% of maximal NDP-MSH signal, inactive = <20% at 100 µM)?
A: The value was “did not result in stimulation”.

Q: What about the Kb (mMC4R [2]) of the same compound?
A: Its Kb is 708 nM.

Q: What about the “mMC4R pA2” value (mMC4R [2]) of the same compound?
A: Its value is 6.2.

Q: What about the “decreased agonist potency at the mMC5R compared to KNS2-22-4” value (mMC5R) of the same compound?
A: Its value is 14 fold.

Q: What about the EC50 (mMC5R) of the same compound?
A: The EC50 was 70 ± 7 nM.

Q: How did the EC50 (mMC1R) turn out when `CC(=O)N[C@@H](Cc1c[nH]cn1)C(=O)N[C@@H](CCCNC(=N)N)C(=O)N[C@H](Cc1ccc(C(F)(F)F)cc1)C(=O)N1Cc2ccccc2C[C@H]1C(N)=O` [KNS2-23-6, Ac-His-Arg-(pCF3)DPhe-Tic-NH2] (Ac-HR[dPhe(4-CF3)][Tic]-NH2) was run?
A: Its EC50 is 5 ± 1 nM.

Q: And the “decreased agonist potency at the mMC1R” value (mMC1R)?
A: The value was 7 fold.

Q: And the “decreased agonist potency at the mMC3R” value (mMC3R)?
A: The value was 7 fold.

Q: And the EC50 (mMC3R)?
A: Its EC50 is 90 ± 30 nM.

Q: What about the EC50 (mMC4R [1]) of the same compound?
A: The EC50 was 600 nM.

Q: And the “mMC4R percent maximal stimulation relative to NDP-MSH (partial agonist)” value (mMC4R [1])?
A: The value was 20 % NDP.

Q: And the Kb (mMC4R [2])?
A: The Kb was 316 nM.

Q: And the “mMC4R pA2” value (mMC4R [2])?
A: The value was 6.5.

Q: And the EC50 (mMC5R)?
A: Its EC50 is 13 ± 4 nM.
